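Interpolation was linear, between the two tested concentrations surrounding the appropriate level; five concentrations were tested over 48 hours in 96-well plates. The concentration for full growth arrest is given as TGI.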
What was measured:
Assay in all cases: NCI-60 cell line screen, 48 h
K-562 leukemia = tested on: K-562 leukemia
SR leukemia = tested on: SR leukemia
HOP-62 NSCLC = tested on: HOP-62 NSCLC
UACC-62 melanoma = tested on: UACC-62 melanoma
RPMI-8226 leukemia = tested on: RPMI-8226 leukemia
SF-539 CNS = tested on: SF-539 CNS
MOLT-4 leukemia = tested on: MOLT-4 leukemia
M14 melanoma = tested on: M14 melanoma
EKVX NSCLC = tested on: EKVX NSCLC
MDA-N = tested on: MDA-N
NCI/ADR-RES ovarian = tested on: NCI/ADR-RES ovarian
ACHN renal = tested on: ACHN renal
OVCAR-8 ovarian = tested on: OVCAR-8 ovarian
OVCAR-5 ovarian = tested on: OVCAR-5 ovarian
MALME-3M melanoma = tested on: MALME-3M melanoma
CAKI-1 renal = tested on: CAKI-1 renal
PC-3 prostate = tested on: PC-3 prostate
SW-620 colon = tested on: SW-620 colon
DU-145 prostate = tested on: DU-145 prostate
SN12C renal = tested on: SN12C renal
786-0 renal = tested on: 786-0 renal
SK-MEL-5 melanoma = tested on: SK-MEL-5 melanoma
COLO 205 colon = tested on: COLO 205 colon
NCI-H522 lung = tested on: NCI-H522 lung
SF-295 CNS = tested on: SF-295 CNS
UO-31 renal = tested on: UO-31 renal
HS 578T breast = tested on: HS 578T breast
HCT-15 colon = tested on: HCT-15 colon
NCI-H226 lung = tested on: NCI-H226 lung
CCRF-CEM leukemia = tested on: CCRF-CEM leukemia
LOX IMVI melanoma = tested on: LOX IMVI melanoma
SK-MEL-2 melanoma = tested on: SK-MEL-2 melanoma
T-47D breast = tested on: T-47D breast
SNB-19 CNS = tested on: SNB-19 CNS
HT29 colon = tested on: HT29 colon
OVCAR-3 ovarian = tested on: OVCAR-3 ovarian
A549 NSCLC = tested on: A549 NSCLC
IGROV1 ovarian = tested on: IGROV1 ovarian
HL-60(TB) leukemia = tested on: HL-60(TB) leukemia
NCI-H460 lung = tested on: NCI-H460 lung
MCF7 breast = tested on: MCF7 breast
OVCAR-4 ovarian = tested on: OVCAR-4 ovarian
SK-OV-3 ovarian = tested on: SK-OV-3 ovarian
KM12 colon = tested on: KM12 colon
RXF 393 renal = tested on: RXF 393 renal
HCC-2998 colon = tested on: HCC-2998 colon
NCI-H23 lung = tested on: NCI-H23 lung
MDA-MB-435 = tested on: MDA-MB-435
SK-MEL-28 melanoma = tested on: SK-MEL-28 melanoma
SNB-75 CNS = tested on: SNB-75 CNS
SF-268 CNS = tested on: SF-268 CNS
UACC-257 melanoma = tested on: UACC-257 melanoma
MDA-MB-231 breast = tested on: MDA-MB-231 breast
U251 CNS = tested on: U251 CNS
HCT-116 colon = tested on: HCT-116 colon
TK-10 renal = tested on: TK-10 renal
A498 renal = tested on: A498 renal
HOP-92 NSCLC = tested on: HOP-92 NSCLC

C=CCNC(=S)/N=C\C(C(=O)OCC)=C(/O)C(=O)OCC
TGI (K-562 leukemia): > 100 µM | TGI (SR leukemia): > 100 µM | TGI (HOP-62 NSCLC): > 100 µM | TGI (UACC-62 melanoma): > 100 µM | TGI (RPMI-8226 leukemia): > 100 µM | TGI (SF-539 CNS): > 100 µM | TGI (MOLT-4 leukemia): > 100 µM | TGI (M14 melanoma): > 100 µM | TGI (EKVX NSCLC): > 100 µM | TGI (MDA-N): > 100 µM | TGI (NCI/ADR-RES ovarian): > 100 µM | TGI (ACHN renal): > 100 µM | TGI (OVCAR-8 ovarian): > 100 µM | TGI (OVCAR-5 ovarian): > 100 µM | TGI (MALME-3M melanoma): > 100 µM | TGI (CAKI-1 renal): > 100 µM | TGI (PC-3 prostate): > 100 µM | TGI (SW-620 colon): > 100 µM | TGI (DU-145 prostate): > 100 µM | TGI (SN12C renal): > 100 µM | TGI (786-0 renal): > 100 µM | TGI (SK-MEL-5 melanoma): > 100 µM | TGI (COLO 205 colon): > 100 µM | TGI (NCI-H522 lung): > 100 µM | TGI (SF-295 CNS): > 100 µM | TGI (UO-31 renal): > 100 µM | TGI (HS 578T breast): > 100 µM | TGI (HCT-15 colon): > 100 µM | TGI (NCI-H226 lung): > 100 µM | TGI (CCRF-CEM leukemia): > 100 µM | TGI (LOX IMVI melanoma): > 100 µM | TGI (SK-MEL-2 melanoma): > 100 µM | TGI (T-47D breast): > 100 µM | TGI (SNB-19 CNS): > 100 µM | TGI (HT29 colon): > 100 µM | TGI (OVCAR-3 ovarian): > 100 µM | TGI (A549 NSCLC): > 100 µM | TGI (IGROV1 ovarian): > 100 µM | TGI (HL-60(TB) leukemia): > 100 µM | TGI (NCI-H460 lung): > 100 µM | TGI (MCF7 breast): > 100 µM | TGI (OVCAR-4 ovarian): > 100 µM | TGI (SK-OV-3 ovarian): > 100 µM | TGI (KM12 colon): > 100 µM | TGI (RXF 393 renal): > 100 µM | TGI (HCC-2998 colon): > 100 µM | TGI (NCI-H23 lung): > 100 µM | TGI (MDA-MB-435): > 100 µM | TGI (SK-MEL-28 melanoma): > 100 µM | TGI (SNB-75 CNS): > 100 µM | TGI (SF-268 CNS): > 100 µM | TGI (UACC-257 melanoma): > 100 µM | TGI (MDA-MB-231 breast): > 100 µM | TGI (U251 CNS): > 100 µM | TGI (HCT-116 colon): > 100 µM

Cc1ccc(C(=O)CC(O)(C(F)(F)F)C(F)(F)F)cc1[N+](=O)[O-]
TGI (K-562 leukemia): > 28.2 µM | TGI (SR leukemia): 14.3 µM | TGI (HOP-62 NSCLC): 29.2 µM | TGI (UACC-62 melanoma): 21.9 µM | TGI (RPMI-8226 leukemia): 69.4 µM | TGI (SF-539 CNS): 31.7 µM | TGI (MOLT-4 leukemia): 68.5 µM | TGI (M14 melanoma): 17.9 µM | TGI (EKVX NSCLC): 31.7 µM | TGI (MDA-N): 28.2 µM | TGI (NCI/ADR-RES ovarian): 44.2 µM | TGI (ACHN renal): 28.9 µM | TGI (OVCAR-8 ovarian): 25.9 µM | TGI (OVCAR-5 ovarian): 33.4 µM | TGI (MALME-3M melanoma): 31.8 µM | TGI (CAKI-1 renal): 4.58 µM | TGI (PC-3 prostate): 27.2 µM | TGI (SW-620 colon): 42.8 µM | TGI (DU-145 prostate): 13.7 µM | TGI (SN12C renal): 25 µM | TGI (786-0 renal): 25.9 µM | TGI (SK-MEL-5 melanoma): 30.8 µM | TGI (COLO 205 colon): 36.5 µM | TGI (NCI-H522 lung): 1.19 µM | TGI (SF-295 CNS): 19.7 µM | TGI (UO-31 renal): 10.6 µM | TGI (HS 578T breast): 42.6 µM | TGI (HCT-15 colon): 13.6 µM | TGI (NCI-H226 lung): 38.7 µM | TGI (LOX IMVI melanoma): 5.22 µM | TGI (SK-MEL-2 melanoma): 34 µM | TGI (T-47D breast): 38.9 µM | TGI (SNB-19 CNS): 22.6 µM | TGI (HT29 colon): 4.12 µM | TGI (OVCAR-3 ovarian): 6.44 µM | TGI (A549 NSCLC): 33 µM | TGI (IGROV1 ovarian): 11.2 µM | TGI (HL-60(TB) leukemia): 4.41 µM | TGI (NCI-H460 lung): 25.1 µM | TGI (MCF7 breast): 11 µM | TGI (OVCAR-4 ovarian): 30.7 µM | TGI (SK-OV-3 ovarian): 32.2 µM | TGI (KM12 colon): 6.31 µM | TGI (RXF 393 renal): 27.1 µM | TGI (HCC-2998 colon): 12.9 µM | TGI (NCI-H23 lung): 23.7 µM | TGI (MDA-MB-435): 22.5 µM | TGI (SK-MEL-28 melanoma): 23.4 µM | TGI (SNB-75 CNS): 33.2 µM | TGI (SF-268 CNS): 31.4 µM | TGI (UACC-257 melanoma): 9.39 µM | TGI (MDA-MB-231 breast): 21.5 µM | TGI (U251 CNS): 31.2 µM | TGI (TK-10 renal): 33.3 µM | TGI (A498 renal): 35.8 µM | TGI (HCT-116 colon): 12.1 µM | TGI (HOP-92 NSCLC): 22.3 µM

OC1CCCCCCCCCCC1SCCCCl (stereo not drawn)
TGI (K-562 leukemia): > 100 µM | TGI (SR leukemia): > 100 µM | TGI (HOP-62 NSCLC): > 100 µM | TGI (UACC-62 melanoma): > 100 µM | TGI (RPMI-8226 leukemia): > 100 µM | TGI (SF-539 CNS): > 100 µM | TGI (MOLT-4 leukemia): > 100 µM | TGI (M14 melanoma): > 100 µM | TGI (EKVX NSCLC): > 100 µM | TGI (MDA-N): > 100 µM | TGI (NCI/ADR-RES ovarian): > 100 µM | TGI (ACHN renal): > 100 µM | TGI (OVCAR-8 ovarian): > 100 µM | TGI (OVCAR-5 ovarian): > 100 µM | TGI (MALME-3M melanoma): > 100 µM | TGI (CAKI-1 renal): > 100 µM | TGI (PC-3 prostate): > 100 µM | TGI (SW-620 colon): > 100 µM | TGI (DU-145 prostate): > 100 µM | TGI (SN12C renal): > 100 µM | TGI (786-0 renal): > 100 µM | TGI (SK-MEL-5 melanoma): > 100 µM | TGI (COLO 205 colon): > 100 µM | TGI (NCI-H522 lung): > 100 µM | TGI (SF-295 CNS): > 100 µM | TGI (UO-31 renal): > 100 µM | TGI (HS 578T breast): > 100 µM | TGI (HCT-15 colon): > 100 µM | TGI (NCI-H226 lung): > 100 µM | TGI (LOX IMVI melanoma): > 100 µM | TGI (SK-MEL-2 melanoma): > 100 µM | TGI (T-47D breast): > 100 µM | TGI (SNB-19 CNS): > 100 µM | TGI (HT29 colon): > 100 µM | TGI (OVCAR-3 ovarian): > 100 µM | TGI (A549 NSCLC): > 100 µM | TGI (IGROV1 ovarian): > 100 µM | TGI (HL-60(TB) leukemia): > 100 µM | TGI (NCI-H460 lung): > 100 µM | TGI (MCF7 breast): > 100 µM | TGI (OVCAR-4 ovarian): > 100 µM | TGI (SK-OV-3 ovarian): > 100 µM | TGI (KM12 colon): > 100 µM | TGI (RXF 393 renal): > 100 µM | TGI (HCC-2998 colon): > 100 µM | TGI (NCI-H23 lung): > 100 µM | TGI (MDA-MB-435): > 100 µM | TGI (SK-MEL-28 melanoma): > 100 µM | TGI (SF-268 CNS): > 100 µM | TGI (UACC-257 melanoma): > 100 µM | TGI (MDA-MB-231 breast): > 100 µM | TGI (U251 CNS): > 100 µM | TGI (TK-10 renal): > 100 µM | TGI (A498 renal): > 100 µM | TGI (HCT-116 colon): > 100 µM | TGI (HOP-92 NSCLC): > 100 µM
